# Patent US20060166869A1, “Novel use of lipopeptide preparations” (priority 2002, published 2006)
# Like-named read-outs stand apart in the source and are kept apart here.
# Assays:
# SIV tilted peptide = target: T1, SIV tilted peptide (Simian immunodeficiency virus, UniProt P05885); format: biochemical; conditions: for concentration at which inhibition is complete: Tris NaCl buffer pH 7.4, SIV tilted peptide 0.966 μM (FIG. 6); for inhibition of LUV fusion: Tris NaCl buffer pH 7.4, SIV tilted peptide 0.966 μM; for concentration at which complete (or nearly complete) inhibition of fusion is reached: Tris NaCl buffer pH 8.0, SIV tilted peptide 0.966 μM (FIG. 2)
# T1 construct: SIV; 12; 528-539; GVFVLGFLGFLA; purchased SYNT:EM (Nimes, France)
# [1] = target: T2, Bordetella pertussis tilted peptide (Bordetella pertussis, UniProt P12255); format: biochemical; conditions: charged LUV, Tris NaCl buffer pH 7.4, Bordetella pertussis tilted peptide 2.42 μM (FIG. 8)
# T2 construct: purchased EPYTOP (Nimes, France)
# From the text: A number of different systems have been developed to assay peptide membrane fusion activity. Large unilamellar vesicles (LUV) are appropriate model for biological membrane fusion. Their curvature and their stability mimic suitably the cell membrane. Several different techniques for detecting and quantifying vesicle fusion are in common use. These include fluorescence assays that monitor fusion-induced lipid mixing between the two lipid bilayers of the membranes by observing the increase of fluorescence of a probe included in a part of vesicles in mixture. The dilution of the probe by fusion of the two bilayers from the two categories of vesicles causes a decrease of the self-quenching phenomenon leading to an increase of the fluorescence intensity.
# Two sets of LUV are prepared: LUV with fluorescent probe (labelled LUV) and free probe LUV (unlabelled LUV). The probe used is the octadecyl rhodamine chloride (R18) (Molecular probes, Eugene, Oreg.).
# The first step is the preparation of large multilamellar vesicles. For this, a mixing of different lipids is operated in a round bottomed Büchi flask. […]
# Vesicles fusion is determined by measuring the fluorescence intensity change resulting from the fluorescence of the R18 probe. Fluorescence is monitored using fluorimeter LS-50B Perkin-Elmer (Norwalk, Conn. USA). […]
# [2] = uncharged LUV, Tris buffer without NaCl pH 8.0, SIV tilted peptide 0.966 μM (FIG. 5)
Substance,concentration at which inhibition is complete (SIV tilted peptide; charged LUV) [µM],concentration at which complete (or nearly complete) inhibition of fusion is reached (SIV tilted peptide; charged LUV) [µM],concentration at which the fusogenic effect is inhibited completely [1] [µM],further results
cyclic fengycin A with a β-hydroxyled fatty acid chain containing 16 carbon atoms [FAC16],~2.4,~1,~1.61,"inhibition of LUV fusion (SIV tilted peptide; charged LUV, agent at 0.8 μM (FIG. 6)): 90%"
cyclic surfactin with an iso-branched β-hydroxyled fatty acid chain containing 13 carbon atoms [SC13],,> 4.8,,
"linear surfactin, with an linear β-hydroxylated fatty acid chain containing 14 carbon atoms and with a linear peptide part [LSC14]",,,,"inhibition of LUV fusion (SIV tilted peptide; charged LUV, agent at concentration near 2 μM (FIG. 6)): 60%"
cyclic surfactin with a linear β-hydroxyled fatty acid chain containing 14 carbon atoms [SC14],,~2.4,,
cyclic surfactin with an iso-branched β-hydroxyled fatty acid chain containing 15 carbon atoms [SC15],~2.4,~2.4,~4.8,"concentration at which fusion is completely inhibited (SIV tilted peptide; uncharged LUV, Tris NaCl buffer pH 8.0, SIV tilted peptide 0.966 μM (FIG. 4)): ~3.2 µM; antifusogenic activity in absence of NaCl compared with Tris NaCl buffer (SIV tilted peptide; [2]): slightly improved; concentration at which complete inhibition is reached (SIV tilted peptide; [2]): ~2 µM"
lysophosphatidylcholine [reference compound],,,,"effect on the fusion percentage (SIV tilted peptide; charged LUV, Tris NaCl buffer pH 8.0, agent at concentrations below 1 μM (FIG. 2)): no effect at all; antifusogenic activity (SIV tilted peptide; charged LUV, Tris NaCl buffer pH 8.0, agent at concentrations between 1 and 2 μM (FIG. 2)): < 50%"
